Laboratory results reported in ChEMBL document CHEMBL3593218, “4,6-Substituted-1,3,5-triazin-2(1H)-ones as monocyclic catalytic inhibitors of human DNA topoisomerase IIα targeting the ATP binding site” (Bioorg Med Chem, 2015).
Values joined by “and” are separate entries in the source; they are usually repeats but may differ in a detail not shown here. Equal entries are not always repeated. One block for each compound: values may come before it.

Key:
[1] = biological target: T1, DNA topoisomerase 2-alpha (Homo sapiens, UniProt P11388); assay: Inhibition of human DNA topoisomerase IIalpha using plasmid pNO1 as a substrate after 30 mins
T1 sequence (P11388 whole entry): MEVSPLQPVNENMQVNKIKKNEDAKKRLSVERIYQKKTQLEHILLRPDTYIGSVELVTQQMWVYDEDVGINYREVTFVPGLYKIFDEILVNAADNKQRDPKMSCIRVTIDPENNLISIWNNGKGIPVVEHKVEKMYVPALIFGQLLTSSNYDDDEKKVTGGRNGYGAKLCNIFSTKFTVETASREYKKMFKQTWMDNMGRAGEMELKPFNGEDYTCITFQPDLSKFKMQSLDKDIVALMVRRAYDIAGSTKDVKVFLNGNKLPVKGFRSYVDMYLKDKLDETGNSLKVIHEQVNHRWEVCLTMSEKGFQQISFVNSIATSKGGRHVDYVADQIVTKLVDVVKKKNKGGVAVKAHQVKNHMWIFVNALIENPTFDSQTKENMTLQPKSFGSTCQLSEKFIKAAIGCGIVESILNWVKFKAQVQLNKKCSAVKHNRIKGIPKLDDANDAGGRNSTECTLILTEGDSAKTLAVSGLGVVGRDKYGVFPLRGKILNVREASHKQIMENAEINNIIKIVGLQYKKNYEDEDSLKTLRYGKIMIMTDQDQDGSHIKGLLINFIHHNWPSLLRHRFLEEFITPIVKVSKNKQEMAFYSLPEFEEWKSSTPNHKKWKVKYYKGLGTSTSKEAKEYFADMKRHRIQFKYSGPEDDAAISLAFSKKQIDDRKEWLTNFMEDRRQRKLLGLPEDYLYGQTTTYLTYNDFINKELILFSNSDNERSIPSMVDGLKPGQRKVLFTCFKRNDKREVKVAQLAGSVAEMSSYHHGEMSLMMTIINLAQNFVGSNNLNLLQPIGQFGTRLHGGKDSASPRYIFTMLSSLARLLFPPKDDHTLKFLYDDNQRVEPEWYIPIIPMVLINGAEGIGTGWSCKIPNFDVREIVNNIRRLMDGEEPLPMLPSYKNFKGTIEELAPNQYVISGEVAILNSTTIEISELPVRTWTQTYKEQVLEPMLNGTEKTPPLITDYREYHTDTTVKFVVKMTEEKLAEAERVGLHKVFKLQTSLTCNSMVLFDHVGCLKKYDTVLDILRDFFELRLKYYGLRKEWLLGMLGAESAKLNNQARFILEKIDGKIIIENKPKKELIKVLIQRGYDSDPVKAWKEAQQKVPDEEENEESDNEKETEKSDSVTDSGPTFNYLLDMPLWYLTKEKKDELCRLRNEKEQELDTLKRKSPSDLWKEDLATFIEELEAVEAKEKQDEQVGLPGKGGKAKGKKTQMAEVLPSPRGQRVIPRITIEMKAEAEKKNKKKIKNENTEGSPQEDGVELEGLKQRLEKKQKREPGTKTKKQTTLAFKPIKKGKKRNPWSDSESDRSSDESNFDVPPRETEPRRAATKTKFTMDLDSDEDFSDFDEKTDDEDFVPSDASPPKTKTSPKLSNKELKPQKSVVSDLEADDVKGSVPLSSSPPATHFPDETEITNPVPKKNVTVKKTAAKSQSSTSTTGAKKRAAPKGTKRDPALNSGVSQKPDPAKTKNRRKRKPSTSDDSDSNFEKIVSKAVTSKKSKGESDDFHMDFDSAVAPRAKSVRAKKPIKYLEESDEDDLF

[2] = biological target: T1, DNA topoisomerase 2-alpha; assay: Inhibition of human DNA topoisomerase IIalpha assessed as reduction in enzyme-catalyzed supercoiling of relaxed circular pBR322 DNA by measuring linear DNA level after 60 mins by agarose gel electrophoresis
[3] = biological target: T1, DNA topoisomerase 2-alpha; assay: Inhibition of human DNA topoisomerase IIalpha assessed as reduction in enzyme-catalyzed supercoiling of relaxed circular pBR322 DNA by measuring linear DNA level at 125 uM after 60 mins by agarose gel electrophoresis in presence of 62.5 uM of etoposide; parameters: scale not given: the % may be the effect or the level left
[4] = biological target: T1, DNA topoisomerase 2-alpha; assay: Inhibition of human DNA topoisomerase IIalpha ATPase activity assessed as residual ATP hydrolysis at 500 uM measured up to 60 mins
[5] = biological target: T1, DNA topoisomerase 2-alpha; assay: Inhibition of human DNA topoisomerase IIalpha assessed as decatenation of kDNA after 90 mins by ethidium bromide staining
[6] = biological target: T1, DNA topoisomerase 2-alpha; assay: Inhibition of human DNA topoisomerase IIalpha ATPase activity assessed as residual ATP hydrolysis at 3.9 uM measured up to 60 mins
[7] = biological target: T1, DNA topoisomerase 2-alpha; assay: Inhibition of human DNA topoisomerase IIalpha assessed as decatenation of kDNA at 3.9 uM after 90 mins by ethidium bromide staining; parameters: scale not given: the % may be the effect or the level left
[8] = biological target: T1, DNA topoisomerase 2-alpha; assay: Inhibition of human DNA topoisomerase IIalpha assessed as decatenation of kDNA at 125 uM after 90 mins by ethidium bromide staining; parameters: scale not given: the % may be the effect or the level left
[9] = biological target: T1, DNA topoisomerase 2-alpha; assay: Inhibition of human DNA topoisomerase IIalpha assessed as reduction in enzyme-catalyzed supercoiling of relaxed circular pBR322 DNA by measuring linear DNA level at 125 uM after 60 mins by agarose gel electrophoresis in presence of 50 uM of etoposide; parameters: scale not given: the % may be the effect or the level left
[10] = biological target: T1, DNA topoisomerase 2-alpha; assay: Inhibition of human DNA topoisomerase IIalpha assessed as reduction in enzyme-catalyzed supercoiling of relaxed circular pBR322 DNA by measuring linear DNA level at 31.5 uM after 60 mins by agarose gel electrophoresis in presence of 50 uM of etoposide; parameters: scale not given: the % may be the effect or the level left
[11] = biological target: T1, DNA topoisomerase 2-alpha; assay: Inhibition of human DNA topoisomerase IIalpha assessed as reduction in enzyme-catalyzed supercoiling of relaxed circular pBR322 DNA by measuring linear DNA level at 31.5 uM after 60 mins by agarose gel electrophoresis in presence of 62.5 uM of etoposide; parameters: scale not given: the % may be the effect or the level left
[12] = biological target: T1, DNA topoisomerase 2-alpha; assay: Inhibition of human DNA topoisomerase IIalpha assessed as reduction in enzyme-catalyzed supercoiling of relaxed circular pBR322 DNA by measuring linear DNA level at 125 uM after 60 mins by agarose gel electrophoresis; parameters: scale not given: the % may be the effect or the level left
[13] = biological target: T1, DNA topoisomerase 2-alpha; assay: Inhibition of human DNA topoisomerase IIalpha assessed as decatenation of kDNA at 500 uM after 90 mins by ethidium bromide staining; parameters: scale not given: the % may be the effect or the level left
[14] = Lipophilicity, log P of the compound; format: physicochemical; conditions: octanol/water
[15] = biological target: T1, DNA topoisomerase 2-alpha; assay: Inhibition of human DNA topoisomerase IIalpha ATPase activity assessed as residual ATP hydrolysis at 31.5 uM measured up to 60 mins
[16] = biological target: T1, DNA topoisomerase 2-alpha; assay: Inhibition of human DNA topoisomerase IIalpha assessed as reduction in enzyme-catalyzed supercoiling of relaxed circular pBR322 DNA by measuring linear DNA level at 50 uM after 60 mins by agarose gel electrophoresis; parameters: scale not given: the % may be the effect or the level left
[17] = biological target: T1, DNA topoisomerase 2-alpha; assay: Inhibition of human DNA topoisomerase IIalpha assessed as reduction in enzyme-catalyzed supercoiling of relaxed circular pBR322 DNA by measuring linear DNA level at 3.9 uM after 60 mins by agarose gel electrophoresis in presence of 50 uM of etoposide; parameters: scale not given: the % may be the effect or the level left
[18] = biological target: T1, DNA topoisomerase 2-alpha; assay: Inhibition of human DNA topoisomerase IIalpha assessed as reduction in enzyme-catalyzed supercoiling of relaxed circular pBR322 DNA by measuring linear DNA level at 31.5 uM after 60 mins by agarose gel electrophoresis; parameters: scale not given: the % may be the effect or the level left
[19] = biological target: T1, DNA topoisomerase 2-alpha; assay: Inhibition of human DNA topoisomerase IIalpha assessed as reduction in enzyme-catalyzed supercoiling of relaxed circular pBR322 DNA by measuring linear DNA level at 500 uM after 60 mins by agarose gel electrophoresis in presence of 62.5 uM of etoposide; parameters: scale not given: the % may be the effect or the level left
[20] = biological target: T1, DNA topoisomerase 2-alpha; assay: Inhibition of human DNA topoisomerase IIalpha assessed as reduction in enzyme-catalyzed supercoiling of relaxed circular pBR322 DNA by measuring linear DNA level at 3.9 uM after 60 mins by agarose gel electrophoresis in presence of 62.5 uM of etoposide; parameters: scale not given: the % may be the effect or the level left
[21] = biological target: T1, DNA topoisomerase 2-alpha; assay: Inhibition of human DNA topoisomerase IIalpha assessed as reduction in enzyme-catalyzed supercoiling of relaxed circular pBR322 DNA by measuring linear DNA level at 500 uM after 60 mins by agarose gel electrophoresis; parameters: scale not given: the % may be the effect or the level left
[22] = biological target: T1, DNA topoisomerase 2-alpha; assay: Inhibition of human DNA topoisomerase IIalpha assessed as reduction in enzyme-catalyzed supercoiling of relaxed circular pBR322 DNA by measuring linear DNA level at 15.625 uM after 60 mins by agarose gel electrophoresis; parameters: scale not given: the % may be the effect or the level left
[23] = biological target: T1, DNA topoisomerase 2-alpha; assay: Inhibition of human DNA topoisomerase IIalpha assessed as reduction in enzyme-catalyzed supercoiling of relaxed circular pBR322 DNA by measuring linear DNA level at 3.9 uM after 60 mins by agarose gel electrophoresis; parameters: scale not given: the % may be the effect or the level left
[24] = biological target: T1, DNA topoisomerase 2-alpha; assay: Inhibition of human DNA topoisomerase IIalpha assessed as reduction in enzyme-catalyzed supercoiling of relaxed circular pBR322 DNA by measuring linear DNA level at 500 uM after 60 mins by agarose gel electrophoresis in presence of 50 uM of etoposide; parameters: scale not given: the % may be the effect or the level left
[25] = biological target: T1, DNA topoisomerase 2-alpha; assay: Inhibition of human DNA topoisomerase IIalpha assessed as decatenation of kDNA at 31.5 uM after 90 mins by ethidium bromide staining; parameters: scale not given: the % may be the effect or the level left
[26] = biological target: T1, DNA topoisomerase 2-alpha; assay: Inhibition of human DNA topoisomerase IIalpha ATPase activity assessed as residual ATP hydrolysis at 125 uM measured up to 60 mins
[27] = biological target: T1, DNA topoisomerase 2-alpha; assay: Inhibition of human DNA topoisomerase IIalpha assessed as reduction in enzyme-catalyzed supercoiling of relaxed circular pBR322 DNA by measuring linear DNA level at 62.5 uM after 60 mins by agarose gel electrophoresis; parameters: scale not given: the % may be the effect or the level left

SMILES: O=c1nc(SCc2ccccc2)nc(SCC2CC2)[nH]1
IC50 [1]: 481 µM

SMILES: O=c1nc(SCc2ccccc2)nc(SCC2CCC2)[nH]1
IC50 [1]: > 1000 µM

SMILES: COc1nc(N[C@H](CCC(=O)O)C(=O)O)nc(OC)n1
IC50 [1]: > 1000 µM

SMILES: O=c1nc(SCc2ccccc2)nc(SCC2CCCCC2)[nH]1
IC50 [1]: > 1000 µM

SMILES: N#Cc1ccc(CSc2nc(SCc3ccccc3)nc(=O)[nH]2)c(F)c1
IC50 [1]: 486 µM

SMILES: O=c1nc(SCc2ccccc2)nc(SCc2ccc(Cl)cc2)[nH]1
IC50 [1]: 219 µM

SMILES: O=c1nc(SCc2ccccc2)nc(SCc2ccc([N+](=O)[O-])cc2)[nH]1
IC50 [1]: 359 µM

SMILES: O=c1nc(SCc2ccccc2)nc(SCc2ccccc2F)[nH]1
inhibition [2]: Dose-dependent effect | Activity [3]: 16.3% | Activity [4]: 0% | inhibition [5]: Dose-dependent effect | Activity [6]: 86.9% | Activity [7]: 91.5% | Activity [8]: 8.55% | Activity [9]: 9.2% | Activity [10]: 33.5% | Activity [11]: 18.5% | Activity [12]: 1.6% | Activity [13]: 0.115% | logP [14]: 2.7 | Activity [15]: 93.7% | Activity [16]: 34.6% | Activity [17]: 34.3% | Activity [18]: 2.3% | Activity [19]: 1.4% | IC50 [1]: 72.5 µM | Activity [20]: 20.6% | Activity [21]: 2.3% | Activity [22]: 3.1% | Activity [23]: 3% | Activity [24]: 5.3% | Activity [25]: 92.6% | Activity [26]: 0% | Activity [27]: 2.1% and 18.1%

SMILES: O=c1nc(-c2cccc([N+](=O)[O-])c2)nc(S)[nH]1
IC50 [1]: > 1000 µM

SMILES: COc1nc(OC)nc(Sc2ccccc2C(=O)O)n1
IC50 [1]: > 1000 µM

SMILES: COc1cccc(CSc2nc(SCc3ccccc3)nc(=O)[nH]2)c1
IC50 [1]: 485 µM

SMILES: O=c1nc(SCc2ccccc2)nc(SCc2ccccc2[N+](=O)[O-])[nH]1
IC50 [1]: 377 µM

SMILES: O=C(O)c1ccccc1Sc1nc(Cl)nc(Cl)n1
IC50 [1]: > 1000 µM

SMILES: CCCSc1nc(SCc2ccccc2)[nH]c(=O)n1
IC50 [1]: > 1000 µM

SMILES: N#Cc1cccc(CSc2nc(SCc3ccccc3)nc(=O)[nH]2)c1
IC50 [1]: 528 µM

The next lines start with the values.

IC50 [1]: > 1000 µM
SMILES: COc1ccc(CNc2nc(Cl)nc(Cl)n2)cc1

IC50 [1]: > 1000 µM
SMILES: CC(C)OC(=O)C(C)NC(=O)c1ccc(Nc2nc(Cl)nc(Cl)n2)cc1 (stereo not given)

IC50 [1]: > 1000 µM
SMILES: CC(C)(C)c1ccccc1Nc1nc(Cl)nc(Cl)n1

IC50 [1]: > 1000 µM
SMILES: CCc1ccccc1Nc1nc(Cl)nc(Cl)n1

IC50 [1]: > 1000 µM
SMILES: OCCc1ccccc1Nc1nc(Cl)nc(NCc2ccccc2)n1

IC50 [1]: > 1000 µM
SMILES: COc1ccc(CNc2nc(Cl)nc(N(C)CCO)n2)cc1

IC50 [1]: > 1000 µM
SMILES: COC(=O)c1ccccc1Nc1nc(Cl)nc(Cl)n1

IC50 [1]: > 1000 µM
SMILES: OCCc1ccccc1Nc1nc(Cl)nc(Cl)n1

IC50 [1]: > 1000 µM
SMILES: COc1ccc(CSc2nc(SCc3ccccc3)nc(=O)[nH]2)cc1
